In US8552002B2 (Novartis AG, priority 2004, dated 2013):

Tests used:
Format in all cases: biochemical
FGFR3 (K650E) = molecular target: T1, FGFR3 (K650E) (Homo sapiens, UniProt P22607, K650E); assay: Recombinant GST-FGFR-3-K650E tyrosine kinase assay (33P into poly(Glu,Tyr)); conditions: 10 μM; Examples 171 to 206; read-out: FGFR3 inhibition at 10 μM
T1 construct: amino acids 411-806 of the cytoplasmic domain of human FGFR-3, N-terminally fused to GST; made in house; host or cells: Sf9 insect cells (baculovirus)
T1 sequence (P22607 411-806 K650E): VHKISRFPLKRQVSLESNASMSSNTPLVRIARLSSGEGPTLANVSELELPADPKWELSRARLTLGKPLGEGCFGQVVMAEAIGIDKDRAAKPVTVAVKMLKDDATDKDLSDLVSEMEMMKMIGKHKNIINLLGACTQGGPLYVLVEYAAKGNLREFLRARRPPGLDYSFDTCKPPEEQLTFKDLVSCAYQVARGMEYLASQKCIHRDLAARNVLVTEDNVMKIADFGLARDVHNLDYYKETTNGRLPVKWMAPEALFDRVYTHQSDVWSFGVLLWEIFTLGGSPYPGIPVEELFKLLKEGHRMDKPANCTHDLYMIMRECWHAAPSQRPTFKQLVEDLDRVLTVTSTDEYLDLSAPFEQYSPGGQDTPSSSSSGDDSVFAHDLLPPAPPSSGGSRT

c-Abl = c-Abl (Homo sapiens, UniProt P00519); assay: Inhibitory activity against c-Abl (Example 207); conditions: Examples 171 to 206
c-Abl, sequence (P00519 whole entry): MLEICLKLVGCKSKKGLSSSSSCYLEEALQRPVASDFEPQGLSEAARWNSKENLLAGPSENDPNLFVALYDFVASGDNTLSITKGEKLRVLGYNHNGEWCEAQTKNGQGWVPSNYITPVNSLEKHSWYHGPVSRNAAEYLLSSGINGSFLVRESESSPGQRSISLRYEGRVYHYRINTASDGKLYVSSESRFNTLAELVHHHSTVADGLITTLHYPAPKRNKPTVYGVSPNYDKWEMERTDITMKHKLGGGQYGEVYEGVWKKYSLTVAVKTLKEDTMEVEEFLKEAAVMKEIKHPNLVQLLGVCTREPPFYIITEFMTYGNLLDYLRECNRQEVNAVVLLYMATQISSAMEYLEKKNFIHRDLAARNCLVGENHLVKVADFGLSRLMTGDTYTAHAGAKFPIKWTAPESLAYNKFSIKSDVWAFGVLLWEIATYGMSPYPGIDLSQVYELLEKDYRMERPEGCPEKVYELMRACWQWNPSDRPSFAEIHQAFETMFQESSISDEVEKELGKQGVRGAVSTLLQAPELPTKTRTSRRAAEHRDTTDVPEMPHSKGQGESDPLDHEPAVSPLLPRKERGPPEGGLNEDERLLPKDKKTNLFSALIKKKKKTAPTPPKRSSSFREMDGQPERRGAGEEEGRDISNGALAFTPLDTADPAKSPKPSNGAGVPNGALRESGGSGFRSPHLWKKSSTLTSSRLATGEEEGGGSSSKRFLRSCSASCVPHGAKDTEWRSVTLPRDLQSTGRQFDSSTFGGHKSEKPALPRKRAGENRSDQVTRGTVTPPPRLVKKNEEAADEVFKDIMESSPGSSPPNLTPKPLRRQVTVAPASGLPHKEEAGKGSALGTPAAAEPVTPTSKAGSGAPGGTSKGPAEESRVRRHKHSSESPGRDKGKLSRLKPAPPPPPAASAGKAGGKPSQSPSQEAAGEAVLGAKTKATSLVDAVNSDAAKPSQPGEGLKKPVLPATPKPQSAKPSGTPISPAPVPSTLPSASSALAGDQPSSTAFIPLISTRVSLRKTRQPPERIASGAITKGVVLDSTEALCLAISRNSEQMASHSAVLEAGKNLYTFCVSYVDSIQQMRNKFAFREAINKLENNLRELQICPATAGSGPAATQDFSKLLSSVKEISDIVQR

KDR = molecular target: T2, KDR (Homo sapiens, UniProt P35968); assay: Inhibitory activity against KDR (VEGF-R2), in vitro data of Examples 170 and 207; conditions: 10 μM; Examples 171 to 206; read-out: KDR inhibition at 10 μM
T2 construct: expressed in transfected cells; host or cells: CHO cells
T2 sequence (P35968 20-1356): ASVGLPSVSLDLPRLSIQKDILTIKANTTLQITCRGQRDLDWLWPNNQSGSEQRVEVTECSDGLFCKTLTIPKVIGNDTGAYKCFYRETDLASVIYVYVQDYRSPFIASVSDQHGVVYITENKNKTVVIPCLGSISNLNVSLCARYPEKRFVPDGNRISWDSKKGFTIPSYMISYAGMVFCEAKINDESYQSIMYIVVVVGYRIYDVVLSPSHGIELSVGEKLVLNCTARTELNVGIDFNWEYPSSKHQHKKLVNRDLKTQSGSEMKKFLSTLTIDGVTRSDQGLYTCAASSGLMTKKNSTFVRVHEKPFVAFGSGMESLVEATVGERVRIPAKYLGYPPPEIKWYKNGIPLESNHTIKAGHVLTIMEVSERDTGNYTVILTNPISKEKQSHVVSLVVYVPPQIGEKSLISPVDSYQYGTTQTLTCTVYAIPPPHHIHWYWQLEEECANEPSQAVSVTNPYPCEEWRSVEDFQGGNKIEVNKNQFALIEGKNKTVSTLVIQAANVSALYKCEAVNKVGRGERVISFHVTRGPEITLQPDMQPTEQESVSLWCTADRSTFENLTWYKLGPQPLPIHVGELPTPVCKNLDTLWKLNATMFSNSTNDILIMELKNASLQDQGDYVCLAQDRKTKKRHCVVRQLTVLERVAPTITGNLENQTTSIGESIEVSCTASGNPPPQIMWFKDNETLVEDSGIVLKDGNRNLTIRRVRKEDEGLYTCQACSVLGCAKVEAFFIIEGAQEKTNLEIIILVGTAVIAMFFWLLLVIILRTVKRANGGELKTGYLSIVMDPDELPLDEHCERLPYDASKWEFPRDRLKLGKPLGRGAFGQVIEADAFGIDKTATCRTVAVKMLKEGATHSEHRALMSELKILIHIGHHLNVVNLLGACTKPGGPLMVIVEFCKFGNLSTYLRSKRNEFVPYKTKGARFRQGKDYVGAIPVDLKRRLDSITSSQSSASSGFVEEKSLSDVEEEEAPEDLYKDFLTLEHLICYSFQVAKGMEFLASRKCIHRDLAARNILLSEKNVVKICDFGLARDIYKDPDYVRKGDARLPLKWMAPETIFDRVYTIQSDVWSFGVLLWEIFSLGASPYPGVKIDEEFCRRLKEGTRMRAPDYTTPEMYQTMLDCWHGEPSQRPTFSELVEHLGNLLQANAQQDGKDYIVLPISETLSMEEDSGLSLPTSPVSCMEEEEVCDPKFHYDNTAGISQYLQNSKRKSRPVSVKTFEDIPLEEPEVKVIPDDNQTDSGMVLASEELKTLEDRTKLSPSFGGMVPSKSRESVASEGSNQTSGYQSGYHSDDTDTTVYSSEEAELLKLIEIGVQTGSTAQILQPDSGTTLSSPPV
Procedure, shortened: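 KDR tyrosine phosphorylation detected by luminescence after overnight 4° C capture of 20 μg lysate protein with PY20:AP antibody. Lysates came from cells given compound for 2 h at 37° C, then final 20 ng/ml VEGF for 5 min; compound-free medium as control.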

Compound	inhibition at 10 µM (FGFR3 (K650E)) [%]	inhibition at 10 µM (c-Abl) [%]	inhibition at 10 µM (KDR) [%]
CC(=O)Nc1cc(N(C)C(=O)Nc2cc(NC(=O)c3ccc(CN4CCN(C)CC4)c(C(F)(F)F)c3)ccc2C)ncn1 [Example 202, N-[3-[3-(6-Acetylaminopyrimidin-4-yl)-3-methylureido]-4-methylphenyL]-4-(4-methylpiperazin-1-ylmethyl)-3-trifluoromethylbenzamide]	56 to 98	79 to 100	87 to 100
COC(=O)Nc1cc(N(C)C(=O)Nc2cc(NC(=O)c3ccc(CN4CCN(C)CC4)c(C(F)(F)F)c3)ccc2C)ncn1 [Example 203, [6-(1-Methyl-3-{2-methyl-5-[4-(4-methyl-piperazin-1-ylmethyl)-3-trifluoromethyl-benzoylamino]-phenyl}-ureido)-pyrimidin-4-yl]-carbamic acid methyl ester]	56 to 98	79 to 100	87 to 100
COc1cc(NC(=O)c2ccc(CN3CCN(C)CC3)c(C(F)(F)F)c2)cc(NC(=O)N(C)c2cc(Nc3ccccc3)ncn2)c1 [Example 200, N-{3-Methoxy-5-[3-methyl-3-(6-phenylamino-pyrimidin-4-yl)-ureido]-phenyl}-4-(4-methyl-piperazin-1-ylmethyl)-3-trifluoromethyl-benzamide]	56 to 98	79 to 100	87 to 100
COc1cc(NC(=O)c2ccc(C)c(C(F)(F)F)c2)cc(NC(=O)N(C)c2cc(Nc3ccc(N4CCN(C)CC4)cc3)ncn2)c1 [Example 201, N-[3-Methoxy-5-(3-methyl-3-{6-[4-(4-methyl-piperazin-1-yl)-phenyl-amino]-pyrimidin-4-yl}-ureido)-phenyl]-4-methyl-3-trifluoromethyl-benzamide]	56 to 98	79 to 100	87 to 100
Cc1ccc(NC(=O)c2cccc(C(F)(F)F)c2)cc1NC(=O)N(C)c1cc(Nc2cccc(OCCN(C)C)c2)ncn1 [Example 182, N-[3-(3-{6-[3-(2-Dimethylamino-ethoxy)-phenylamino]-pyrimidin-4-yl}-3-methyl-ureido)-4-methyl-phenyl]-3-trifluoromethyl-benzamide]	56 to 98	79 to 100	87 to 100
Cc1ccc(NC(=O)c2cccc(C(F)(F)F)c2)cc1NC(=O)Nc1cc(Nc2ccc(OCCN3CCOCC3)cc2)ncn1 [Example 179, N-[4-Methyl-3-(3-{6-[4-(2-morpholin-4-yl-ethoxy)-phenylamino]-pyrimidin-4-yl}-ureido)-phenyl]-3-trifluoromethyl-benzamide]	56 to 98	79 to 100	87 to 100
CCN(CC)CCOc1ccc(Nc2cc(NC(=O)Nc3cc(NC(=O)c4cccc(C(F)(F)F)c4)ccc3C)ncn2)cc1 [Example 176, N-[3-(3-{6-[4-(2-Diethylamino-ethoxy)-phenylamino]-pyrimidin-4-yl}-ureido)-4-methyl-phenyl]-3-trifluoromethyl-benzamide]	56 to 98	79 to 100	87 to 100
Cc1ccc(NC(=O)c2cccc(C(F)(F)F)c2)cc1NC(=O)Nc1cc(Nc2cccc(N3CCN(C)CC3)c2)ncn1 [Example 175, N-[4-Methyl-3-(3-{6-[3-(4-methyl-piperazin-1-yl)-phenylamino]-pyrimidin-4-yl}-ureido)-phenyl]-3-trifluoromethyl-benzamide]	56 to 98	79 to 100	87 to 100
Cc1ccc(C(=O)Nc2ccc(CN3CCN(C)CC3)c(C(F)(F)F)c2)cc1NC(=O)N(C)c1cc(N)ncn1 [Example 206, 3-[3-(6-Amino-pyrimidin-4-yl)-3-methyl-ureido]-4-methyl-N-[4-(4-methyl-piperazin-1-ylmethyl)-3-trifluoromethyl-phenyl]-benzamide]	56 to 98	79 to 100	87 to 100
Cc1ccc(NC(=O)c2cccc(C(F)(F)F)c2)cc1NC(=O)N(CCc1ccccn1)c1cc(Nc2ccccc2)ncn1 [Example 190, N-{4-Methyl-3-[3-(6-phenylamino-pyrimidin-4-yl)-3-(2-pyridin-2-yl-ethyl)-ureido]-phenyl}-3-trifluoromethyl-benzamide]	56 to 98	79 to 100	87 to 100

Further lines, results first:

inhibition at 10 µM (FGFR3 (K650E)) [%]	inhibition at 10 µM (c-Abl) [%]	inhibition at 10 µM (KDR) [%]	Compound
56 to 98	79 to 100	87 to 100	Cc1ccc(NC(=O)c2cccc(C(F)(F)F)c2)cc1NC(=O)N(C)c1cc(Nc2ccccc2)ncn1 [Example 181, N-{4-Methyl-3-[3-methyl-3-(6-phenylamino-pyrimidin-4-yl)-ureido]-phenyl}-3-trifluoromethyl-benzamide]
56 to 98	79 to 100	87 to 100	Cc1ccc(NC(=O)c2cccc(C(F)(F)F)c2)cc1NC(=O)N(C)c1cc(Nc2ccc(C(=O)N3CCN(C)CC3)cc2)ncn1 [Example 187, N-[4-Methyl-3-(3-methyl-3-{6-[4-(4-methyl-piperazine-1-carbonyl)-phenylamino]-pyrimidin-4-yl}-ureido)-phenyl]-3-trifluoromethyl-benzamide]
56 to 98	79 to 100	87 to 100	Cc1ccc(NC(=O)c2cccc(C(F)(F)F)c2)cc1NC(=O)N(Cc1cccs1)c1cc(Nc2ccc(N3CCN(C)CC3)cc2)ncn1 [Example 193, N-[4-Methyl-3-(3-{6-[4-(4-methyl-piperazin-1-yl)-phenylamino]-pyrimid-in-4-yl}-3-thiophen-2-ylmethyl-ureido)-phenyl]-3-trifluoromethyl-benzamide]
56 to 98	79 to 100	87 to 100	CCN(C(=O)Nc1cc(NC(=O)c2cccc(C(F)(F)F)c2)ccc1C)c1cc(Nc2ccc(N3CCN(C)CC3)cc2)ncn1 [Example 192, N-[3-(3-Ethyl-3-{6-[4-(4-methyl-piperazin-1-yl)-phenylamino]-pyrimidin-4-yl}-ureido)-4-methyl-Phenyl]-3-trifluoromethyl-benzamide]
56 to 98	79 to 100	87 to 100	Cc1ccc(NC(=O)c2cccc(C(F)(F)F)c2)cc1NC(=O)N(C)c1cc(Nc2ccc(OCCN3CCN(C)CC3)cc2)ncn1 [Example 184, N-{4-Methyl-3-[3-methyl-3-(6-{4-[2-(4-methyl-piperazin-1-yl)-ethoxy]-phenylamino}-pyrimidin-4-yl)-ureido]-phenyl}-3-trifluoromethyl-benzamide]
56 to 98	79 to 100	87 to 100	Cc1ccc(NC(=O)c2cccc(C(F)(F)F)c2)cc1NC(=O)N(C)c1cc(Nc2cccc(N3CCN(C)CC3)c2)ncn1 [Example 188, N-[4-Methyl-3-(3-methyl-3-{6-[3-(4-methyl-piperazin-1-yl)-phenylamino]-pyrimidin-4-yl}-ureido)-phenyl]-3-trifluoromethyl-benzamide]
56 to 98	79 to 100	87 to 100	CCN(CC)CCOc1ccc(Nc2cc(N(C)C(=O)Nc3cc(NC(=O)c4cccc(C(F)(F)F)c4)ccc3C)ncn2)cc1 [Example 183, N-[3-(3-{6-[4-(2-Diethylamino-ethoxy)-phenylamino]-pyrimidin-4-yl}-3-methyl-ureido)-4-methyl-Phenyl]-3-trifluoromethyl-benzamide]
